For assay [1], the system named is SAMP8 mice. Nature of the assay: Object recognition task. It counts as in vivo. The conditions noted are these: 7-month SAMP8 mice. The protocol:
(§1) All SAMP8 mice were treated with either saline or pramlintide beginning at 6 months of age. A subcutaneous ALZET® osmotic minipump (Model 2002, Durect Corp., Cupertino, Calif., USA) was surgically implanted into all mice as described previously^26. The osmotic mini-pump infused 0.24 mg/kg/day pramlintide acetate (0.6 mg/mL pramlintide, Amylin Pharmaceuticals, Inc., San Diego, Calif.) or saline at a rate of 0.5 μL/hr. Pumps were replaced with new refilled pumps every two weeks throughout the study duration. All animals were weighed weekly throughout the course of the experiment.
A total of 20 SAMP8 mice were used in the object recognition task. […] The mice were allowed to explore the environment for 10 minutes, during which their movements were recorded with a tracking system. […]
Videos recordings of the retention session were scored by an investigator blinded to the treatment groups. Object exploration, defined as the duration of time in which the head of the mouse faced less than ½ cm from the object, was measured during the training and retention sessions. The frequency of object exploration was also recorded, as well as the frequency and time spent rearing and grooming to determine general exploratory behavior. […] The recognition index was calculated as the percent of time spent exploring the novel object versus the total time spent exploring the objects.

The next assay relates to cyclooxygenase 2 (COX-2). In words: Cellular stress immunohistochemistry, COX-2. The format is in vivo, SAMR1 mice. The settings on record: mice treated for 2 weeks, compared to saline-treated mice. The method, then:
(§2) To determine the acute effects of pramilide on potential mechanisms associated with cognitive function a total of 12 control mice (SAMR1) 9 months of age were used to measure the effects of pramlintide on hippocampal neurogenesis. Half of the mice (n=6) were infused by minipump with pramlintide for a total of two weeks, while the other half (n=6) received minipumps filled with saline. For the last seven days of the experiment, all mice received daily intraperitoneal injections of 50 mg/kg BRDU (Sigma, St Louis, […].) dissolved in 0.9% saline and filtered at […]. One day after the last BRDU injection, mice were deeply anesthetized and transcranially perfused using 4% paraformaldehyde in 0.9% saline. The brains were then extracted and post-fixed in 4% paraformaldehyde for 24 hours, after which they were placed in a 30% sucrose solution for three days. All brains were quick-frozen and then cut into 40 μm sagital sections using a cryostatand stored at 4° C. as floating sections.
(§3) To determine whether pramilide had more acute neuroprotective effects in non-pathological conditions, sections from the same mice used for neurogenesis were used to determine markers of cellular stress. […]
(§4) Tissue sections were quantified. […] Six fields across the hippocampus were drawn and % staining within that field was measured using Metamorph software. […]

The test system of assay [2] is BrdU-positive cells in the dentate gyrus. In words: BrdU immunostaining, hippocampal neurogenesis. It counts as in vivo. The conditions noted are these: 9-month SAMR1 mice, two weeks minipump, compared to saline-treated mice. The protocol: as §2
BRDU immunohistochemistry was performed as previously described. […]
A validated sterology protocol was used to quantify BrdU-labeled cells in the dentate gyrus. […] All BrdU-positive cells in the dentate gyrus of the hippocampus were counted in every 6th section through the hippocampus, for a total of 12 sections per animal. […]

In another assay the test system is 4-Hydroxynonenal (HNE). Nature of the assay: Cellular stress immunohistochemistry, HNE. It counts as in vivo, SAMR1 mice. The conditions noted are these: mice treated for 2 weeks, compared to saline-treated mice. The method, then: as §2, §3, §4
In another assay the test system is HO-1. In words: Western blotting of hippocampal HO-1. It counts as in vivo. The settings on record: SAMP8 mice, 5 weeks, compared to saline-treated mice. The protocol:
(§5) All SAMP8 mice were sacrificed by lethal overdose 5 weeks after the initiation of the pramlintide and saline treatments. The brains were harvested and the hippocampus was dissected and homogenized in protease and phosphatase inhibitor-supplemented 1×RIPA lysis/extraction buffer (Pierce). Total protein was quantified using the BCA Protein Assay Kit (Pierce). 10-20 μg of protein was run in a 10% SDS-PAGE gel and the protein was transferred onto Polyvinylidene fluoride (PVDF) membranes (Millipore). After blocking for one hour in 5% milk, the membranes were incubated overnight at 4° C. in the primary antibody at a 1:1000 dilution, followed by a 1-hour incubation with HRP-conjugated IgG at a 1:10,000 dilution. Primary antibodies used were CDK5 (Millipore), P35/P25 (Millipore), Synapsin I (Santa Cruz), and HO-1 (Gift from Dr. Zhu). The blots were developed using Immobilon Western Chemiluminescent HRP Substrate (Millipore) and imaged using FluorChem M (ProteinSimple). Membranes were stripped using Restore Western Blot Stripping Buffer (Thermo Scientific) for reprobing. Quantifications were performed using ImageJ software.
On the technique in general: In western blotting, separated proteins are transferred to a membrane and probed.

Assay [3] is described as follows: Body weight change during 5-week pramlintide minipump infusion. It counts as in vivo. The conditions noted are these: over 5-week treatment period, 0.24 mg/kg/day s.c. minipump, SAMP8 mice. The method, then: SAMP8 and SAM-resistant 1 (SAMR1) mice were obtained from an established colony at Case Western Reserve University. All animals were group housed, provided ad libitum access to a standard diet and water, and were exposed to a 12/12 light/dark daily cycle. The mice were housed under pathogen-free conditions at a temperature of 21±1.5° C.
as §1
To investigate the effects of pramlintide on memory, SAMP8 mice were continually infused with saline or pramlintide for a total of five weeks. Consistent with pramlintide's known anorexic effect, the pramlintide-treated mice experienced a change in body weight of −5.8% (Std=4.7) over the course of the treatment period as compared to a weight change of −0.1% (6.1) for the saline-treated mice. […]

The test system of the next assay is CDK5. Nature of the assay: Western blotting of hippocampal CDK5. It counts as in vivo. The settings on record: SAMP8 mice treated five weeks, relative to saline-treated group. The protocol: as §5
Another assay concerns p35, p25. Nature of the assay: Western blotting of hippocampal p35/p25. The format is in vivo. The conditions noted are these: hippocampus, SAMP8 mice, five weeks, vs saline. The protocol:
as §5

For another assay, the system named is synapsin I. Nature of the assay: Western blotting of hippocampal synapsin I. It counts as in vivo. The settings on record: SAMP8 mice treated five weeks, vs saline. The protocol: as §5
The test system of assay [4] is SAMP8 mice. Nature of the assay: Morris water maze (learning, probe and retention trials). The settings on record: chronic amylin; for MWM maze learning: acute leptin at time of testing, FIGS. 10 and 11. The format is in vivo. An excerpt: In this Example, we examined whether chronic amylin administration has beneficial effects on cognition using senescence-accelerated SAMP8 mice, a validated animal model of mild cognitive impairment (MCI)/early Alzheimer's disease (AD) in which the mice experience premature cognitive deficits. Given that the anorectic effects of amylin are specifically synergistic with another metabolic hormone, leptin, we also studied whether amylin's effects on cognition might be enhanced when used in conjunction with leptin.
(§6) To validate the hypothesis that amylin is a cognitive enhancing drug that can be given alone and that may provide benefit for cognitive dysfunction associated diseases such as AD or age-related cognitive dysfunction (normal or Mild cognitive impairment (MCI)), we determined the ability of chronic treatment with amylin to improve cognitive function in the Morris water maze and object recognition tasks in the age accelerated SAMP8 mouse model, a model of MCI/early AD. […] Furthermore, improvement of amylin treatment in the retention trial, carried out 24 hrs reflects the ability of amylin to improve consolidation to long-term, permanent memory. (FIG. 9).
(§7) We were able to test this hypothesis under chronic amylin treatment and acute delivery of leptin at time of testing in SAMP8 mice. […] The slope of curve for the SAMP8 mice treated with a combination of amylin and leptin was the steepest […]. […] Novel object recognition testing, another cognition-based test, supported our findings in the MWM. […] It is important to note that these studies were carried out in cognitively impaired animals with leptin treatments under acute conditions. As such, it is likely that the lack of observable synergistic additive magnitude derives from insufficient length of leptin treatment.

Assay [5] concerns SAMP8 mice. Nature of the assay: Novel object recognition testing. It counts as in vivo. The settings on record: chronic amylin, leptin delivered acutely, vs saline, FIG. 13.
Text: as §6, §7

No end group written: not given here.

Consider `CC[C@H](C)[C@H](NC(=O)[C@@H]1CCCN1C(=O)CNC(=O)[C@H](Cc1ccccc1)NC(=O)[C@H](CC(N)=O)NC(=O)[C@H](CC(N)=O)NC(=O)[C@H](CO)NC(=O)[C@H](CO)NC(=O)[C@H](Cc1c[nH]cn1)NC(=O)[C@@H](NC(=O)[C@H](CC(C)C)NC(=O)[C@H](Cc1ccccc1)NC(=O)[C@H](CC(N)=O)NC(=O)[C@H](C)NC(=O)[C@H](CC(C)C)NC(=O)[C@H](CCCNC(=N)N)NC(=O)[C@H](CCC(N)=O)NC(=O)[C@@H](NC(=O)[C@H](C)NC(=O)[C@@H]1CSSC[C@H](NC(=O)[C@@H](N)CCCCN)C(=O)N[C@@H](CC(N)=O)C(=O)N[C@@H]([C@@H](C)O)C(=O)N[C@@H](C)C(=O)N[C@@H]([C@@H](C)O)C(=O)N1)[C@@H](C)O)C(C)C)C(=O)N[C@@H](CC(C)C)C(=O)N1CCC[C@H]1C(=O)N1CCC[C@H]1C(=O)N[C@H](C(=O)N[C@@H](CC(N)=O)C(=O)N[C@H](C(=O)NCC(=O)N[C@@H](CO)C(=O)N[C@@H](CC(N)=O)C(=O)N[C@H](C(=O)N[C@@H](Cc1ccc(O)cc1)C(N)=O)[C@@H](C)O)C(C)C)[C@@H](C)O` [pramlintide], for which the recognition index in the assay on SAMP8 mice [1] (5 weeks infusion, retention test 3 hours after training, vs saline) is listed as 0.67 (Std=0.06). In the assay with SAMP8 mice [1] (chronic treatment, vs saline-treated controls), the “difference score (recognition memory)” value is on record as “significantly increased”. Also, the “COX-2 immunostaining in the hippocampus” value in the assay on cyclooxygenase 2 (COX-2) is listed as “significant decreases”. In [2], the “more BrdU-positive cells in the dentate gyrus” value stood at 40%. Also, the “HNE immunostaining in the hippocampus” value in the assay on 4-Hydroxynonenal (HNE) is on record as “trend toward decreased”. In the assay on HO-1, the “expression of the protein HO-1 in the hippocampus” value is on record as “significantly decreased”. The “change in body weight” value in assay [3] was −5.8%. Further, the “hippocampal expression of the protein CDK5” value in the assay with CDK5 is “significantly increased”. In the assay with p35, p25, the “amount of cleavage product p25” value is “no differences”, the “amount of the CDK5 activator p35” value is on record as “no differences” and the “ratio of p25/p35” value is “no differences”. Further, in the assay with synapsin I, the “hippocampal expression of synapsin I” value is reported as “significantly increase”.

As to “amylin: 37-amino acid polypeptide hormone normally co-secreted with insulin by pancreatic beta cells (KCNTATCATQRLANFLVHSSNNFGAILSSTNVGSNTY; not fully specified (C-terminus, bridges); cysteine pairing not given here; UniProt P10997 34-70, looked up)”, the “learning of the MWM task” value in the assay on SAMP8 mice [4] (SAMP8 (P8) vs non-treated P8, FIG. 8) was “potent effect on learning”. Also, in the assay on SAMP8 mice [4] (SAMP8 vs non-treated P8, FIG. 9), the MWM probe trial result was “perform better than non-treated P8”. Also, the MWM maze learning entry in the assay with SAMP8 mice [4] (SAMP8 mice) is “improved”. Moreover, in the assay on SAMP8 mice [4] (retention carried out 24 hrs, FIG. 9), the MWM retention trial entry was “improvement”.

B1: leptin: metabolic hormone, delivered acutely at time of testing (protein, UniProt P41160 22-167, looked up)
Leptin: VPIQKVQDDTKTLIKTIVTRINDISHTQSVSAKQRVTGLDFIPGLHPILSLSKMDQTLAVYQQVLTSLPSQNVLQIANDLENLRDLLHLLAFSKSCSLPQTSGLQKPESLDGVLEASLYSTEVVALSRLQGSLQDILQQLDVSPEC
With B1, in the assay on SAMP8 mice [4] (SAMP8 mice), the MWM maze learning entry is “improved”. Besides, the MWM probe/retention trials entry with SAMP8 mice [4] (acute leptin, SAMP8 mice, compared to saline, FIG. 12) is recorded as “no benefits”. Further, the “novel object recognition, discrimination ratio” value in the assay with SAMP8 mice [5] is recorded as “no benefits”.

(Values after patent US9682125B2, “Compositions and methods for treating cognitive deficits” (Case Western Reserve University, priority 2011, dated 2017).)
